# Experimental data: ChEMBL document CHEMBL1201862, “PubChem BioAssay data set” (2004)
#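 In this assay, cells in 96-well plates receive the compound at five concentrations for 48 hours. Endpoints are linearly interpolated between the surrounding concentrations. GI50 is the concentration that inhibits growth by half.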 The source made the active and inactive calls. No stated cut-off is given here; in the data, active = GI50 up to about 1.1 µM and inactive = higher.
# Legend:
# Experiment in all cases: inhibition of tumour cell growth, NCI panel, 48 h
# [1] = system: 786-0
# [2] = system: CCRF-CEM
# [3] = system: DU-145
# [4] = system: HL-60
# [5] = system: HOP-92
# [6] = system: LOX IMVI
# [7] = system: M14
# [8] = system: MDA-N
# [9] = system: NCI/ADR-RES
# [10] = system: SF-268
# [11] = system: SK-MEL-28
# [12] = system: SK-MEL-2
# [13] = system: SK-OV-3
# [14] = system: SNB-19
# [15] = system: UACC-62
# [16] = system: A498
# [17] = system: K562
# [18] = system: RPMI-8226
# [19] = system: SR
SMILES,GI50 [1],GI50 [2],GI50 [3],GI50 [4],GI50 [5],GI50 [6],GI50 [7],GI50 [8],GI50 [9],GI50 [10],GI50 [11],GI50 [12],GI50 [13],GI50 [14],GI50 [15],GI50 [16],GI50 [17],GI50 [18],GI50 [19]
COC(=O)C(=O)C(C(=O)C(=O)Nc1cccc([N+](=O)[O-])c1)c1nc2ccc(Cl)cc2nc1O (configuration not stated),> 100 µM (inactive),> 100 µM (inactive),> 100 µM (inactive),> 100 µM (inactive),> 100 µM (inactive),> 100 µM (inactive),> 100 µM (inactive),> 100 µM (inactive),> 100 µM (inactive),> 100 µM (inactive),> 100 µM (inactive),> 100 µM (inactive),> 100 µM (inactive),> 100 µM (inactive),> 100 µM (inactive),–,–,–,–
COC(=O)CCc1ccc2c(c1)CC1(Cc3ccccc3C1)C2,> 100 µM (inactive),34.6 µM (inactive),–,51.9 µM (inactive),97.5 µM (inactive),> 100 µM (inactive),> 100 µM (inactive),> 100 µM (inactive),> 100 µM (inactive),–,–,14.3 µM (inactive),> 100 µM (inactive),–,57.3 µM (inactive),> 100 µM (inactive),> 100 µM (inactive),> 100 µM (inactive),–
COC(=O)CCC(=O)NC1c2cccc3cccc(c23)Cn2c(=O)n(C)c(=O)n21 (configuration not stated),> 100 µM (inactive),> 100 µM (inactive),> 100 µM (inactive),–,> 100 µM (inactive),> 100 µM (inactive),> 100 µM (inactive),–,> 100 µM (inactive),> 100 µM (inactive),> 100 µM (inactive),> 100 µM (inactive),> 100 µM (inactive),> 100 µM (inactive),> 100 µM (inactive),–,> 100 µM (inactive),> 100 µM (inactive),> 100 µM (inactive)
O=C(Cc1ccccc1)NN1C(=O)/C(=C\c2cccc([N+](=O)[O-])c2)S/C1=N\c1ccccc1,> 100 µM (inactive),–,> 100 µM (inactive),–,44 µM (inactive),–,> 100 µM (inactive),> 100 µM (inactive),> 100 µM (inactive),> 100 µM (inactive),> 100 µM (inactive),> 100 µM (inactive),> 100 µM (inactive),> 100 µM (inactive),> 100 µM (inactive),> 100 µM (inactive),> 100 µM (inactive),> 100 µM (inactive),–
O=c1[nH]n(CCc2ccccc2CCl)c2ccc([N+](=O)[O-])cc12,93.8 µM (inactive),37 µM (inactive),77.3 µM (inactive),29.4 µM (inactive),67.6 µM (inactive),41.5 µM (inactive),58.1 µM (inactive),–,31.8 µM (inactive),> 100 µM (inactive),> 100 µM (inactive),> 100 µM (inactive),–,> 100 µM (inactive),45.8 µM (inactive),91 µM (inactive),38.9 µM (inactive),> 100 µM (inactive),50.9 µM (inactive)
CCOC(=O)c1nc2ccccc2nc1Oc1ccc(F)cc1,> 100 µM (inactive),> 100 µM (inactive),> 100 µM (inactive),–,2.64 µM (inactive),> 100 µM (inactive),> 100 µM (inactive),> 100 µM (inactive),> 100 µM (inactive),55.8 µM (inactive),> 100 µM (inactive),> 100 µM (inactive),> 100 µM (inactive),> 100 µM (inactive),> 100 µM (inactive),> 100 µM (inactive),> 100 µM (inactive),> 100 µM (inactive),–
CCOC(=O)Cn1c(=O)c2nc(SC)sc2n(-c2ccccc2)c1=O,> 100 µM (inactive),> 100 µM (inactive),–,> 100 µM (inactive),33.7 µM (inactive),–,> 100 µM (inactive),> 100 µM (inactive),–,–,> 100 µM (inactive),> 100 µM (inactive),–,> 100 µM (inactive),> 100 µM (inactive),22.4 µM (inactive),> 100 µM (inactive),> 100 µM (inactive),> 100 µM (inactive)
O=c1[nH]c2ccccc2c(=O)c2cc3ccccc3cc12,6.58 µM (inactive),51.5 µM (inactive),26.9 µM (inactive),40 µM (inactive),3.9 µM (inactive),27.9 µM (inactive),45.3 µM (inactive),> 100 µM (inactive),26.6 µM (inactive),3.42 µM (inactive),67 µM (inactive),22.5 µM (inactive),11.8 µM (inactive),12.1 µM (inactive),41.6 µM (inactive),17.2 µM (inactive),> 100 µM (inactive),–,–
O=c1[nH]nc(Cc2ccccc2)n1/N=C/c1ccco1,> 100 µM (inactive),> 100 µM (inactive),> 100 µM (inactive),–,–,> 100 µM (inactive),> 100 µM (inactive),–,> 100 µM (inactive),> 100 µM (inactive),> 100 µM (inactive),> 100 µM (inactive),> 100 µM (inactive),> 100 µM (inactive),> 100 µM (inactive),45.9 µM (inactive),> 100 µM (inactive),> 100 µM (inactive),–
CSc1ccsc1-c1sc(-c2cc(SC)c(-c3sc(-c4cc(SC)c(-c5sccc5SC)s4)cc3SC)s2)cc1SC,15.3 µM (inactive),4.26 µM (inactive),96.8 µM (inactive),0.356 µM (active),62.4 µM (inactive),> 100 µM (inactive),> 100 µM (inactive),–,45.7 µM (inactive),> 100 µM (inactive),> 100 µM (inactive),> 100 µM (inactive),> 100 µM (inactive),> 100 µM (inactive),42.2 µM (inactive),> 100 µM (inactive),46.8 µM (inactive),3.44 µM (inactive),–
COc1ccc2oc(=O)c(-c3csc(-c4ccccc4)n3)cc2c1,17.9 µM (inactive),> 100 µM (inactive),> 100 µM (inactive),> 100 µM (inactive),24.3 µM (inactive),54.8 µM (inactive),> 100 µM (inactive),> 100 µM (inactive),–,28.8 µM (inactive),> 100 µM (inactive),> 100 µM (inactive),17.3 µM (inactive),20.5 µM (inactive),34.5 µM (inactive),–,> 100 µM (inactive),87.3 µM (inactive),> 100 µM (inactive)
COC(OC)c1cc2c(cc1C(=O)[C@@]13CCC[C@@H]1NC(=O)O3)OCO2,> 100 µM (inactive),> 100 µM (inactive),–,> 100 µM (inactive),> 100 µM (inactive),–,> 100 µM (inactive),–,–,> 100 µM (inactive),> 100 µM (inactive),> 100 µM (inactive),> 100 µM (inactive),91.2 µM (inactive),34.1 µM (inactive),> 100 µM (inactive),> 100 µM (inactive),–,–
Cc1nc(C(N)=S)sc1C(=O)/C=C/c1cccc(O)c1,> 100 µM (inactive),28.4 µM (inactive),–,36.1 µM (inactive),60.4 µM (inactive),45.2 µM (inactive),–,–,–,87.3 µM (inactive),> 100 µM (inactive),> 100 µM (inactive),> 100 µM (inactive),–,> 100 µM (inactive),> 100 µM (inactive),29.9 µM (inactive),25.9 µM (inactive),–
Cn1nc2ccccc2cc1=O,> 100 µM (inactive),> 100 µM (inactive),–,–,> 100 µM (inactive),> 100 µM (inactive),> 100 µM (inactive),–,–,> 100 µM (inactive),> 100 µM (inactive),> 100 µM (inactive),> 100 µM (inactive),> 100 µM (inactive),> 100 µM (inactive),> 100 µM (inactive),> 100 µM (inactive),> 100 µM (inactive),–
CCOC(=O)c1cc(/C=C/C(C)=C/C(=O)OC)oc1-c1ccccc1,> 100 µM (inactive),48.9 µM (inactive),–,46.2 µM (inactive),–,> 100 µM (inactive),> 100 µM (inactive),–,–,40.8 µM (inactive),–,> 100 µM (inactive),> 100 µM (inactive),38.5 µM (inactive),41.3 µM (inactive),> 100 µM (inactive),33.8 µM (inactive),31.6 µM (inactive),–
CCNCC(=O)Nc1ccc2c(c1)C(=O)c1ccc(NC(=O)CNCC)cc1C2=O,2.14 µM (inactive),2.9 µM (inactive),2.69 µM (inactive),3.01 µM (inactive),3.38 µM (inactive),2.26 µM (inactive),3.5 µM (inactive),4.59 µM (inactive),6.08 µM (inactive),3.27 µM (inactive),5.61 µM (inactive),15.9 µM (inactive),2.76 µM (inactive),2.7 µM (inactive),3.75 µM (inactive),2.62 µM (inactive),1.78 µM (inactive),–,–
CCOC(=O)c1nnsc1NN=C(C)C,> 100 µM (inactive),–,> 100 µM (inactive),> 100 µM (inactive),–,> 100 µM (inactive),> 100 µM (inactive),> 100 µM (inactive),> 100 µM (inactive),> 100 µM (inactive),> 100 µM (inactive),> 100 µM (inactive),> 100 µM (inactive),–,> 100 µM (inactive),> 100 µM (inactive),> 100 µM (inactive),> 100 µM (inactive),–
O=C1OC2(CCCCC2)C(Oc2ccc(Cl)cc2)=C1F,48.3 µM (inactive),29.7 µM (inactive),92.9 µM (inactive),23.7 µM (inactive),20.4 µM (inactive),27.9 µM (inactive),33 µM (inactive),37.2 µM (inactive),–,54 µM (inactive),23.7 µM (inactive),23.8 µM (inactive),> 100 µM (inactive),88.7 µM (inactive),22.1 µM (inactive),47.3 µM (inactive),30.6 µM (inactive),32.7 µM (inactive),33.5 µM (inactive)
